Like-named read-outs stand apart in the source and are kept apart here.
Experiments:
Assay type in all cases: cell-based
[1] = test system: HEK293 clonal cell line overexpressing APOL1 G1; experiment: APOL1 G1 HEK293 cell rescue assay (Example B3); conditions: geometric mean of at least 2 runs, † = single run, ¥ = concentration at 50% rescue estimated (no sigmoidal curve)
Method in brief: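 HEK293 clonal line overexpressing APOL1 G1; EC50 is half-maximal reversal of APOL1-induced cell death. Values are the geometric mean of ≥2 runs on separate days, each run the average of duplicate wells. Where no sigmoidal curve could be fitted, the concentration giving 50% rescue was estimated.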

[2] = test system: Trypanosoma brucei Lister 427 VSG221 with APOL1 G0 recombinant protein; experiment: APOL1 G0 trypanosome cell rescue assay (Example B5); conditions: geometric mean of at least 2 assay runs, † = single assay run
Method in brief: (§1)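 Recombinant mature APOL1 (residues 28-398, His-tag removed, E. coli-expressed, refolded from inclusion bodies, DDM buffer) at […] added with 250 trypanosomes/well in modified HMI-9 media. Duplicate 11-point 2-fold compound series, 0.4% DMSO; 20 h at 37° C, 5% CO2, then CellTiter-Glo luminescence for viability.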

[3] = test system: Trypanosoma brucei Lister 427 VSG221 with APOL1 G1 recombinant protein; experiment: APOL1 G1 trypanosome cell rescue assay (Example B5); conditions: geometric mean of at least 2 assay runs, † = single assay run
Method in brief: as §1

[4] = test system: Trypanosoma brucei Lister 427 VSG221 with APOL1 G2 recombinant protein; experiment: APOL1 G2 trypanosome cell rescue assay (Example B5); conditions: geometric mean of at least 2 assay runs, † = single assay run
Method in brief: as §1

[5] = Homo sapiens, HEK293, HEK293 clonal line overexpressing APOL1 G1
[6] = Trypanosoma brucei, 20 h, read-out: APOL1 G0 Trypanosome Rescue EC50, Trypanosoma brucei Lister 427 VSG221 with APOL1 G0 recombinant protein, 20 hours, CellTiter-Glo
[7] = Trypanosoma brucei, 20 h, read-out: APOL1 G1 Trypanosome Rescue EC50, Trypanosoma brucei Lister 427 VSG221 with APOL1 G1 recombinant protein, 20 hours, CellTiter-Glo
[8] = Trypanosoma brucei, 20 h, read-out: APOL1 G2 Trypanosome Rescue EC50, Trypanosoma brucei Lister 427 VSG221 with APOL1 G2 recombinant protein, 20 hours, CellTiter-Glo

## O=C1NCC2c3ccc(OCCN4CCC5(CC4)C(=O)Nc4ccc(Cl)cc45)cc3CCN12 (single isomer, unassigned) [Compound 117, (R) or (S)-5-chloro-1′-[2-({3-oxo-1H,2H,3H,5H,6H,10bH-imidazo[4,3-a]isoquinolin-8-yl}oxy)ethyl]-1,2-dihydrospiro[indole-3,4′-piperidin]-2-one]
[1]; HEK293 clonal line overexpressing APOL1 G1
  EC50: 174 nM
[2]; read-out: APOL1 G0 Trypanosome Rescue EC50, Trypanosoma brucei Lister 427 VSG221 with APOL1 G0 recombinant protein, 20 hours, CellTiter-Glo
  EC50: 309 nM
[3]; read-out: APOL1 G1 Trypanosome Rescue EC50, Trypanosoma brucei Lister 427 VSG221 with APOL1 G1 recombinant protein, 20 hours, CellTiter-Glo
  EC50: 423 nM
[4]; read-out: APOL1 G2 Trypanosome Rescue EC50, Trypanosoma brucei Lister 427 VSG221 with APOL1 G2 recombinant protein, 20 hours, CellTiter-Glo
  EC50: 117 nM

## CC1(Oc2ncc(OCCN3CCC4(CC3)C(=O)Nc3ccc(Cl)cc34)cn2)COC1 [Compound 172, 5-chloro-1′-[2-({2-[(3-methyloxetan-3-yl)oxy]pyrimidin-5-yl}oxy)ethyl]-1,2-dihydrospiro[indole-3,4′-piperidin]-2-one]
[1]; [5]
  EC50: 188 nM
[2]; [6]
  EC50: 246 nM
[3]; [7]
  EC50: 353 nM
[4]; [8]
  EC50: 108 nM

## CS(=O)(=O)C1(c2ccc(OCCN3CCC4(CC3)C(=O)Nc3ccc(Cl)cc34)cc2)CC2(COC2)C1 [Compound 182, 5-chloro-1′-[2-(4-{6-methanesulfonyl-2-oxaspiro[3.3]heptan-6-yl}phenoxy)ethyl]-1,2-dihydrospiro[indole-3,4′-piperidin]-2-one]
[1]; [5]
  EC50: 225 nM
[2]; [6]
  EC50: 401 nM
[3]; [7]
  EC50: 481 nM
[4]; [8]
  EC50: 138 nM

## CS(=O)(=O)C1(c2ccc(OCCN3CCC4(CC3)C(=O)N(CC(F)(F)F)c3ccc(C#N)cc34)cc2)COC1 [Compound 184, 1′-{2-[4-(3-methanesulfonyloxetan-3-yl)phenoxy]ethyl}-2-oxo-1-(2,2,2-trifluoroethyl)-1,2-dihydrospiro[indole-3,4′-piperidine]-5-carbonitrile]
[1]; [5]
  EC50: ~2500 nM
[2]; [6]
  EC50: 1600 nM
[3]; [7]
  EC50: 2080 nM
[4]; [8]
  EC50: 585 nM

## O=C1Nc2ccc(Cl)cc2C12CCN(CCOc1ccc3c(c1)CCNS3(=O)=O)CC2 [Compound 167, 6-(2-{5-chloro-2-oxo-1,2-dihydrospiro[indole-3,4′-piperidin]-1′-yl}ethoxy)-3,4-dihydro-2H-1λ^6,2-benzothiazine-1,1-dione]
[1]; [5]
  EC50: 138 nM
[2]; [6]
  EC50: 98.4 nM
[3]; [7]
  EC50: 148 nM
[4]; [8]
  EC50: 35 nM

## CN1CCc2cc(OCCN3CCC4(CC3)C(=O)Nc3ccc(Cl)cc34)ccc2S1(=O)=O [Compound 153, 6-(2-{5-chloro-2-oxo-1,2-dihydrospiro[indole-3,4′-piperidin]-1′-yl}ethoxy)-2-methyl-3,4-dihydro-2H-1λ^6,2-benzothiazine-1,1-dione]
[1]; [5]
  EC50: 96.2 nM
[2]; [6]
  EC50: 52.2 nM
[3]; [7]
  EC50: 66.7 nM
[4]; [8]
  EC50: 25.6 nM

## O=C1Nc2ccc(Cl)cc2C12CCN(CCOc1ccc(S(=O)(=O)C(F)F)cc1)CC2 [Compound 112, 5-chloro-1′-[2-(4-difluoromethanesulfonylphenoxy)ethyl]-1,2-dihydrospiro[indole-3,4′-piperidin]-2-one]
[1]; [5]
  EC50: 77.5 nM
[2]; [6]
  EC50: 58.2 nM
[3]; [7]
  EC50: 69.6 nM
[4]; [8]
  EC50: 18.3 nM

## CS(=O)(=O)c1ccc(OCCN2CCC3(CC2)C(=O)Nc2c(C#N)cc(Cl)cc23)cc1 [Compound 9, 5-chloro-1′-[2-(4-methanesulfonylphenoxy)ethyl]-2-oxo-1,2-dihydrospiro[indole-3,4′-piperidine]-7-carbonitrile]
[1]; [5]
  EC50: ~11500 nM
[2]; [6]
  EC50: > 4000 nM
[3]; [7]
  EC50: > 4000 nM
[4]; [8]
  EC50: 1320 nM

## CS(=O)(=O)c1ccc(OCCN2CCC3(CC2)C(=O)Nc2ccc(C#N)cc23)cc1C(F)(F)F [Compound 107, 1′-{2-[4-methanesulfonyl-3-(trifluoromethyl)phenoxy]ethyl}-2-oxo-1,2-dihydrospiro[indole-3,4′-piperidine]-5-carbonitrile]
[1]; [5]
  EC50: 120 nM
[2]; [6]
  EC50: 57.2 nM
[3]; [7]
  EC50: 93.5 nM
[4]; [8]
  EC50: 23 nM

## O=C1CCc2cc(OCCN3CCC4(CC3)C(=O)Nc3ccc(Cl)cc34)ccc2N1C1COC1 [Compound 99, 5-chloro-1′-(2-{[1-(oxetan-3-yl)-2-oxo-1,2,3,4-tetrahydroquinolin-6-yl]oxy}ethyl)-1,2-dihydrospiro[indole-3,4′-piperidin]-2-one]
[1]; [5]
  EC50: 205 nM
[2]; [6]
  EC50: 216 nM
[3]; [7]
  EC50: 346 nM
[4]; [8]
  EC50: 90.1 nM
